The text below walks through data of paper PMC11982232, “Factors affecting irreversible inhibition of EGFR and influence of chirality on covalent binding” (Communications Chemistry, 2025).

The structures appear in SMILES notation.

For data set [1], the system named is GSH. The data set is described as follows: GSH reactivity (glutathione half-life). The class given is physicochemical. The conditions noted are these: 4.6 mM glutathione (GSH) in phosphate buffer; 4.6 mM GSH, 50 µM compound, pH 7.4 phosphate buffer, 37 °C; read-out: GSH t1/2 (converted). Here is the method:
Compounds were suspended to 10 mM in 100% DMSO and were added to 4.6 mM GSH to achieve the final compound concentration of 50 µM in pH 7.4 phosphate buffer before incubating at 37 °C. Compound reaction with GSH was monitored by LC-MS on a Waters Acquity UPLC system with PDA and ELSD operating in positive and negative ion electrospray mode, employing an Acquity UPLC BEH C18, […], 2.1 × 50 mm column with 0.1% formic acid and water-acetonitrile (5–95%) for gradient elution over 4 minutes.

In data set [2] the target is T1, EGFR WT (Homo sapiens, UniProt P00533).
T1 construct: made in house; host or cells: Sf9 insect cells (MultiBac baculovirus)
Put plainly: TR-FRET probe displacement assay, EGFR WT. The class given is binding. The conditions noted are these: for WT pIC50 / IC50: 30 min incubation, mean of at least 3 replicates; for IC50: read-out: WT pIC50 (converted). As for the experimental part:
(§1) The binding mode of gefitinib, typical of an anilinoquinazoline-based kinase inhibitor, is well characterised, with the morpholine side-chain extending into the solvent exposed region where a variety of substituents are tolerated. […] Accordingly, probe compound 6 was prepared, in which the morpholine was replaced by a piperazine and a BODIPY fluorophore was attached via a 4-aminobutanoate spacer (Fig. 3a). A related sapitinib-derived tracer has subsequently been described. Compound 6 was employed in a time-resolved Förster-resonance energy transfer (TR-FRET) assay with EGFR bound to a terbium-containing antibody (Fig. 3b). In line with our previous work exploring the activity of anilinoquinazoline-based acrylamide TCIs[14], the incubation time for the assay was set at 30 mins.
(§2) Compounds (dissolved to 10 mM in DMSO) were dispensed into black low-volume 384 well assay plates (Corning) over a final concentration range of 100000, 30,000, 10,000, 3000, 1000, 300, 100, 30, 10, and 3 nM using an Echo 550 (Labcyte). Positive control compound and DMSO as a negative control were dispensed into the first and last well, respectively. Each well was backfilled with DMSO to a final volume of 200 nl, resulting in final assay DMSO concentrations of 1%. […] Plates were read using a PheraStar FS (BMG Labtech) at Ex337nm […]. The data were analysed using GraphPad Prism/Dotmatics Studies Software. Assays were conducted in technical replicate and repeated as a biological duplicate.
In general terms: In TR-FRET formats the signal depends on donor and acceptor labels being close together.

Data set [3] concerns the target T2, EGFR DM (L858R/T790M) (Homo sapiens, UniProt P00533, L858R/T790M).
T2 construct: His tag
The data set is described as follows: TR-FRET probe displacement assay, EGFR DM. Type of data set: binding. Conditions: for DM pIC50 / IC50: 30 min incubation, mean of at least 3 replicates; for IC50: read-out: DM pIC50 (converted). Here is the method: as §1, §2

Data set [4] relates to pEGFR in DM expressing H1975 cells. The data set is described as follows: Cellular pEGFR inhibition by HTRF in H1975 cells. The class given is cell-based. Conditions: Homo sapiens, NCI-H1975, n = 1, read-out: pIC50 (H1975) cellular pEGFR inhibition (converted). Here is the method: (§3) Cells were plated at 20,000 cells per well in 96 well plates and placed at 37°C 5% CO2. Once adhered (after 24 h) cells were treated with compounds dissolved in DMSO at a final concentration of 0.1% DMSO in media. Compounds were diluted in media then added to cells for 2.5 hours in duplicate. 100 ng/ml EGF (ThermoFisher, PHG0311) was is added to all compound treated cells as well as a control for 30 mins. Compound and media were removed from the cells, then 50ul of HTRF lysis buffer was added (lysis buffer was diluted from 4X stock to 1X in DI water, with 1% blocking agent also added). Cells were lysed on a plate shaker (2000 rpm) for 30 minutes at room temperature. pEGFR expression was monitored using the Cisbio Phospho-EGFR (Tyr1068) cellular kit (64EG1PEH). Total EGFR expression was monitored using the Cisbio Total EGFR cellular kit (64NG1PEH) as per manufacturer’s instructions. Fluorescence emission was read at two different wavelengths (665 nm and 620 nm) on a PheraStar. Results were calculated as the ratio of pEGFR/ total EGFR and then the percentage of 0 µM control. Data is n = 1 from 2 replicates.

In data set [5] the test system is A431 cells. Put plainly: Growth inhibition in A431 cells (SRB, 72 h). Type of data set: cell-based. The conditions noted are these: Homo sapiens, A-431, A431 cell viability, n = 1. Here is the method: A431 cells purchased from ECACC, Cat. 85090402, were plated on day 0 in a 96-well plate at a density known to allow for exponential growth over 72 h in DMEM (Sigma-Aldrich, Cat No. D5796) supplemented with 10% FBS (Gibco, Cat No. 10270-106). On day 1, the compounds were diluted to the required concentration in DMEM + 10% FBS media, ensuring that the final DMSO concentration was 0.1% once added to cells. The cells were then incubated for 72 h at 37 °C with 5% CO2. Cells were then fixed by adding 50% (wt/vol) TCA to each well of the plate and left at 4 °C for 1 h. The plates were then washed thoroughly with water, 100 μL of 0.4% SRB solution was added to the wells, and left at room temperature for 30 min. The plates were rinsed with 1% AcOH and then left to air-dry in a drying cabinet for 1 h. Once dry, 100 μL of 10 mM tris pH 10.5 was added to each well and the plates were placed on a plate shaker for 10 min. The absorbance was read at 570 nm using a FluoStar Omega plate reader. Data is n = 1 from 3 replicates, […]

For data set [6], the system named is pEGFR in WT EGFR overexpressing A431 cells. Put plainly: Cellular pEGFR inhibition by HTRF in A431 cells. Type of data set: cell-based. Conditions: Homo sapiens, A-431, n = 1, read-out: pIC50 (A431) cellular pEGFR inhibition (converted). As for the experimental part: as §3
Data set [7] has as its target T3, WT EGFR (Homo sapiens, UniProt P00533).
T3 construct: AssayQuant Technologies Inc. (contract measurement)
Put plainly: Intact protein mass spectrometry. Type of data set: binding. The conditions noted are these: 15 µM compound, 4 µM EGFR, 4 hr, ambient temperature. As for the experimental part: Compounds were suspended to 10 mM in 100% DMSO and were added to 4 µM EGFR to achieve the final compound concentration of 15 µM in 1% DMSO, in 25 mM TRIS pH8, 150 mM NaCL, 5% glycerol before incubating at ambient temperature for the 4 hr time prior to analysis. […] 1 µL of purified protein (~1 mg/mL) was injected onto a MS Pac DS-10 Desalter cartridge ((Thermo Fisher Scientific), PN: 089170, 2.1 × 10 mm) for desalting and reversed phase separation at 70 °C. The mobile phase was 0.1% (v/v) formic acid in LC-MS grade water (A) and LC-MS grade acetonitrile (B) with separation performed over 7.5 min. […] Proteins were detected in positive ion mode using electrospray ionisation with nebuliser pressure of 45 psig, drying gas flow of 5 L/min, and source gas temperature of 325 °C. Sheath gas temperature of 400 °C and gas flow of 11 L/min, capillary voltage of 3500 V and nozzle voltage of 2000V were also used. Mass spectra were acquired using MassHunter Acquisition software (version B.08.00) over a mass range of 100–3000 m/z, at a rate of 1 spectra/s and 1000 ms/spectrum in standard mass range (3200 m/z) at 2 GHz. The instrument had been calibrated over the selected mass range prior to analysis.

T1 sequence (P00533 25-1210): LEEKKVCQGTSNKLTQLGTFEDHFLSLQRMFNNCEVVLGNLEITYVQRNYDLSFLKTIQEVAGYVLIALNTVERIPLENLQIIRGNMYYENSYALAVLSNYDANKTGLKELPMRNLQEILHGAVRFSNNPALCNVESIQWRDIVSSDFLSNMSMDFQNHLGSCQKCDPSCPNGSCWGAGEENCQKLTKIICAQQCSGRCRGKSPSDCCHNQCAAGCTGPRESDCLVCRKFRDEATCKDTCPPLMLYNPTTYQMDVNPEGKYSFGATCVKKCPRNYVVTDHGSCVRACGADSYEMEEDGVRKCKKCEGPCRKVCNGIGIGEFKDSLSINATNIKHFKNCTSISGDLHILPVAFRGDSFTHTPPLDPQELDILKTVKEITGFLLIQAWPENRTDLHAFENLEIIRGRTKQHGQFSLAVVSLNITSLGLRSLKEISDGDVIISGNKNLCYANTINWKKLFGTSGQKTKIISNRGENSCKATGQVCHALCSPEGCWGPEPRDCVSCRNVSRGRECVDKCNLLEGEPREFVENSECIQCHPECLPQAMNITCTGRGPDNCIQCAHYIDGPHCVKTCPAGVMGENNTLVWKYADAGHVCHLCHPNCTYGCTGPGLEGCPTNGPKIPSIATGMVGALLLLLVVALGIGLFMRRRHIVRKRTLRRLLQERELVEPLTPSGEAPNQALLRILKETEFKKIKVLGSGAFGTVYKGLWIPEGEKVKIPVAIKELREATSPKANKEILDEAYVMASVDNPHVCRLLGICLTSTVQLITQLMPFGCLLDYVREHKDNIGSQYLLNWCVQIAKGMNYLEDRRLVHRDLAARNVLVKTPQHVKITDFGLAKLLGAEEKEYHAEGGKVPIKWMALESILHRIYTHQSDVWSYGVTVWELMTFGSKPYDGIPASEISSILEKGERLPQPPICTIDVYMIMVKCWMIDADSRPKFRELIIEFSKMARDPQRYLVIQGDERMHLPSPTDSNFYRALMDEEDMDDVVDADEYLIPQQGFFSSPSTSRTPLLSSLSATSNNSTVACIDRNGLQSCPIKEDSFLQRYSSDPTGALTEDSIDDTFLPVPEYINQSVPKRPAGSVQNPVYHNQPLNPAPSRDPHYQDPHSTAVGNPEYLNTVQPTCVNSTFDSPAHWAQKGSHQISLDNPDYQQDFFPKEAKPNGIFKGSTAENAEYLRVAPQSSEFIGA
T2 sequence (P00533 25-1210 T790M/L858R): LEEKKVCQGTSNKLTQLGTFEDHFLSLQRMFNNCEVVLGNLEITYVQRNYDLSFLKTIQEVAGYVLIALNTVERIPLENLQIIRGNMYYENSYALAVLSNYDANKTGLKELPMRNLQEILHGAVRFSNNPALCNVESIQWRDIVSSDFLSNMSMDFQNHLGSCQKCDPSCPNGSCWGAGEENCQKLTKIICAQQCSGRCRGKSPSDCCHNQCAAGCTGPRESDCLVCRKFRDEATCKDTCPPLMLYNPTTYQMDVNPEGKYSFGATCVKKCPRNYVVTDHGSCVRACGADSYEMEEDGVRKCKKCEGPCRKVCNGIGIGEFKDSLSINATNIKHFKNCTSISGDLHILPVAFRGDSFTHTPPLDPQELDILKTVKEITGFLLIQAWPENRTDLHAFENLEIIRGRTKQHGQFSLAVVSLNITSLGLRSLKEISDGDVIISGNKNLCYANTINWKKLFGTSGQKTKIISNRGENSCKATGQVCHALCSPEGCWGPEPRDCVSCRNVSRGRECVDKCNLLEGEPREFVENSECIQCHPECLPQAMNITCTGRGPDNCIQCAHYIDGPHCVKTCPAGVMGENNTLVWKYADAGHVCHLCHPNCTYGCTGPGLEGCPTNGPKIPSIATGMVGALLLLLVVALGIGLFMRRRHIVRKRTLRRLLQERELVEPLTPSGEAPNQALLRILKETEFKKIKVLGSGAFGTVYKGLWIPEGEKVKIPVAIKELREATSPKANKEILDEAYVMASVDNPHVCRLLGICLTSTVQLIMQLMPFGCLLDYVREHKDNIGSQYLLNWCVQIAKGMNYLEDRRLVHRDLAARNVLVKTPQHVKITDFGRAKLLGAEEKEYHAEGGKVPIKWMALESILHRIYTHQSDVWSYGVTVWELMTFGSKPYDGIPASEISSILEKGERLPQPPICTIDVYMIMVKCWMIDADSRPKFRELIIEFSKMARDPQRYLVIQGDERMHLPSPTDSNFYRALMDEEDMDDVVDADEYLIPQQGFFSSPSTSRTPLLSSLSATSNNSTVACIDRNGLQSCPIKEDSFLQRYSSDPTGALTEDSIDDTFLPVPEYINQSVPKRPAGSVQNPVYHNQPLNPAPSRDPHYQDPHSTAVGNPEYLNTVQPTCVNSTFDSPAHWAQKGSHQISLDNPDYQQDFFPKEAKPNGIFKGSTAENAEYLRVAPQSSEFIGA
T3 sequence (P00533 25-1210): as the sequence (P00533 25-1210) above

With `C=CC(=O)Nc1cc(Nc2nccc(-c3cn(C)c4ccccc34)n2)c(OC)cc1N(C)CCN(C)C` [Compound 2, osimertinib, reference compound], the half-life at 50 µM in data set [1] was 2.5 h.
As for `COc1cc2ncnc(Nc3ccc(F)c(Cl)c3)c2cc1OCCCN1CCN(C(=O)CCCNC(=O)CCc2ccc3n2[B-](F)(F)[N+]2=C(C)C=C(C)C2=C3)CC1` [Compound 6, N-(4-(4-(3-((4-((3-chloro-4-fluorophenyl)amino)-7-methoxyquinazolin-6-yl)oxy)propyl)piperazin-1-yl)-4-oxobutyl)-3-(5,5-difluoro-7,9-dimethyl-5H-5l4,6l4-dipyrrolo[1,2-c:2’,1’-f][1,3,2]diazaborinin-3-yl)propenamide, reference compound], the Kd (in general, the equilibrium constant for the complex coming apart) was 1600 ± 190 nM in data set [2] (fluorescent probe) and 3000 ± 1600 nM in data set [3] (fluorescent probe).
With `C=CC(=O)N1CCC(Oc2cc3c(Nc4cccc(Cl)c4F)ncnc3cc2OC)CC1` [Compound 7], the “WT pIC50” value in data set [2] was 8.8 ± 0.1. In addition, the “DM pIC50” value in data set [3] amounted to 8.4 ± 0.03.
`C=CC(=O)N1CCC(Oc2cc3c(Nc4ccc(F)c(Cl)c4)ncnc3cc2OC)CC1` [Compound 8]: in data set [2], the “WT pIC50” value amounted to 8.3 ± 0.07. In data set [3], the “DM pIC50” value amounted to 8.0 ± 0.6.
For `C=CC(=O)N1CC[C@@H](Oc2cc3c(Nc4ccc(F)c(Cl)c4)ncnc3cc2OC)C1` [Compound 16], the IC50 in data set [4] was 2510 nM; in data set [2] it was 316 nM; in data set [3], 100 nM; in data set [6], 79.4 nM. In data set [5], the GI50 – broadly, the concentration that inhibits growth by half – is 316 nM. For the same compound, the half-life at 50 µM in data set [1] was 36 h.
As for `C=CC(=O)N1CC[C@H](Oc2cc3c(Nc4ccc(F)c(Cl)c4)ncnc3cc2OC)C1` [Compound 17], the IC50 in data set [4] is 25.1 nM; in data set [2] it was 5.01 nM; in data set [3] it was 6.31 nM; in data set [6], less than 10 nM. Moreover, in data set [7], the “level of protein modification compared to 16” value is on record as “two-fold increase”. In data set [5], this compound had a GI50 of 7.94 nM. The half-life at 50 µM in data set [1] was 41 h.
With `COc1cc2ncnc(Nc3ccc(F)c(Cl)c3)c2cc1O[C@@H]1CCN(C(C)=O)C1` [Compound 22], the IC50 was 39.8 nM in data set [2] and 25.1 nM in data set [3].
As to `COc1cc2ncnc(Nc3ccc(F)c(Cl)c3)c2cc1O[C@H]1CCN(C(C)=O)C1` [Compound 23], the IC50 in data set [2] was 126 nM; in data set [3], 31.6 nM.
